Results on 33 compounds are retold here after ChEMBL document CHEMBL5260817, “Polyamine-based analogs and conjugates as antikinetoplastid agents” (Eur J Med Chem, 2017).

Test [1] addresses T1, Trypanothione reductase (Trypanosoma cruzi, UniProt P28593). In words: Inhibition of Trypanosoma cruzi TryR assessed as inhibition constant.
The test system of the next test is Leishmania chagasi. As to the kind of experiment: Antiprotozoal activity against Leishmania chagasi measured after 3 days by MTT assay. The format is functional, organism-based. The note with it: 72 h. In general terms: Tetrazolium dyes change colour on reduction, which living cells bring about.
The nature of test [2]: Inhibition of Trypanosoma brucei MetRS.
For test [3], the system named is Trypanosoma brucei. As to the kind of experiment: Antiprotozoal activity against Trypanosoma brucei. Type of test: functional, organism-based.
Test [4] has as its target Trypanothione reductase (Trypanosoma brucei brucei, UniProt P39051). In words: Inhibition of Trypanosoma brucei TryR assessed as inhibition constant.
Test [5] concerns the target T1, Trypanothione reductase. In words: Inhibition of Trypanosoma cruzi TryR assessed as inhibition constant in presence of NADPH.
A short description of test [6]: Inhibition of TryR (unknown origin) assessed as inhibition constant. Details: species or system Bacteria.
The test system of test [7] is Leishmania braziliensis. In words: Antiprotozoal activity against Leishmania braziliensis MHOM/PE/84/LC26 amastigotes infected in mouse J774.2 cells measured after 72 hrs. The note with it: J774.2, 72 h. Type of test: functional, organism-based.
The test system of test [8] is Leishmania amazonensis. In words: Antiprotozoal activity against Leishmania amazonensis promastigotes measured after 48 hrs by MTT assay. The format is functional, organism-based.
The subject of another test is Trypanosoma. As to the kind of experiment: Inhibition of Trypanosomal TryS at 10 uM relative to control.
Test [9] concerns Trypanosoma brucei brucei. In words: Antiprotozoal activity against Trypanosoma brucei brucei. Type of test: functional, organism-based.
The subject of a further test is Bacteria. In words: Inhibition of TryR (unknown origin) at 10 uM relative to control.
Test [10] concerns Leishmania donovani. In words: Antiprotozoal activity against Leishmania donovani promastigotes. Type of test: functional, organism-based.
The test system of test [11] is Leishmania donovani. As to the kind of experiment: Antiprotozoal activity against Leishmania donovani MHOM/SD/00/1S-2D strain promastigotes assessed as parasitic death at 10 uM relative to control. The format is functional.
The subject of test [12] is Leishmania donovani. As to the kind of experiment: Antiprotozoal activity against Leishmania donovani MHOM/SD/00/1S-2D strain promastigotes assessed as parasitic death. The format is functional, organism-based.
Test [13] relates to Leishmania braziliensis. In words: Antiprotozoal activity against Leishmania braziliensis 2903 strain […] assessed as […] at 10 ug/ml relative to control. Type of test: functional. The note with it: dose 10 µg/ml.
The subject of test [14] is Leishmania donovani. In words: Antiprotozoal activity against Leishmania donovani PP75 strain […] assessed as […] at 10 ug/ml relative to control. Type of test: functional. The note with it: dose 10 µg/ml.
The test system of test [15] is Leishmania amazonensis. As to the kind of experiment: Antiprotozoal activity against Leishmania amazonensis PH8 strain […] assessed as […] at 10 ug/ml relative to control. Type of test: functional. Conditions: dose 10 µg/ml.
The test system of test [16] is Leishmania amazonensis. In words: Antiprotozoal activity against Leishmania amazonensis measured after 3 days by MTT assay. Type of test: functional, organism-based. Conditions: 72 h.
Test [17] deals with Trypanosoma cruzi. As to the kind of experiment: Antiprotozoal activity against Trypanosoma cruzi. Type of test: functional, organism-based.
Test [18] relates to Trypanosoma brucei. As to the kind of experiment: Trypanocidal activity against Trypanosoma brucei K 243-As-10-3 strain. Type of test: functional, organism-based.
Test [19] concerns Trypanosoma brucei. As to the kind of experiment: Trypanocidal activity against Trypanosoma brucei K 269 strain. Type of test: functional, organism-based.
Test [20] relates to Trypanosoma brucei. As to the kind of experiment: Trypanocidal activity against Trypanosoma brucei K 243 strain. Type of test: functional, organism-based.
Test [21] has as its system Trypanosoma brucei. In words: Trypanocidal activity against Trypanosoma brucei Lab 110 strain. The format is functional, organism-based.
For test [22], the target named is T1, Trypanothione reductase. In words: Inhibition of Trypanosoma cruzi TryR.
The test system of test [23] is Leishmania donovani. In words: Antiprotozoal activity against Leishmania donovani. Type of test: functional, organism-based.
Test [24] deals with Trypanosoma brucei rhodesiense. As to the kind of experiment: Antiprotozoal activity against Trypanosoma brucei rhodesiense. Type of test: functional, organism-based.
Test [25] deals with Trypanosoma cruzi. As to the kind of experiment: Antiprotozoal activity against Trypanosoma cruzi epimastigotes. Type of test: functional, organism-based.

Molecules are shown by their SMILES. pIC50, pKi: −log10 of the molar value. Values joined by “and” are separate entries in the source; they are usually repeats but may differ in a detail not shown here. Identical values can stand only once. Some results are limits rather than exact numbers.

T1 sequence (P28593 whole entry): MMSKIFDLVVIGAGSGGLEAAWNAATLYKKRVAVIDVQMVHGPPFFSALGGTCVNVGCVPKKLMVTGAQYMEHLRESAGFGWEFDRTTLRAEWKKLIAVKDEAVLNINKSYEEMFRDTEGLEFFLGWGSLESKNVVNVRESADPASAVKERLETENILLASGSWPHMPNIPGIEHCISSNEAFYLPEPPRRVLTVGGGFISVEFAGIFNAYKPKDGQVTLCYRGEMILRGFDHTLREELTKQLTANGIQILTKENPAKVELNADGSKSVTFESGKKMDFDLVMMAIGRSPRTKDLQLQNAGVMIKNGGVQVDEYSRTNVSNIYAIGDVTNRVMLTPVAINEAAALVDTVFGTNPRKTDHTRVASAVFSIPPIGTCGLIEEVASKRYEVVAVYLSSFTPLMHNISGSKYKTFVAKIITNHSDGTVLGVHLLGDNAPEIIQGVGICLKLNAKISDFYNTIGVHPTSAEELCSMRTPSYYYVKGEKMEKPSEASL
Trypanothione reductase (Trypanosoma brucei brucei, UniProt P39051), sequence (P39051 whole entry): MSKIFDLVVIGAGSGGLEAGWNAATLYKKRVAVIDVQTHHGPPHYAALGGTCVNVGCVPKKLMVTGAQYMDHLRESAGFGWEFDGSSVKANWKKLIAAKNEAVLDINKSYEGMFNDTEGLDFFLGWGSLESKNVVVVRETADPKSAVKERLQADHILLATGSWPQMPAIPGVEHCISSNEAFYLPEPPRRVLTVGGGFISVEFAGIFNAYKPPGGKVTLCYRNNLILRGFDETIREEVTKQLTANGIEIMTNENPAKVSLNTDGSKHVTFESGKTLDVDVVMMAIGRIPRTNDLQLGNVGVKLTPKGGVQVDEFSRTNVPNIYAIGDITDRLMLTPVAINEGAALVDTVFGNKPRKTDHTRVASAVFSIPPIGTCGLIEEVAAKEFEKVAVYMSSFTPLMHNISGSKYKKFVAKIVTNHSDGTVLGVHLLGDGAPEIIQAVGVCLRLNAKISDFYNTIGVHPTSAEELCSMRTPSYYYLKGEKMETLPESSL

As to `NCCCCN(CCCN)Cc1ccccc1`, the negative logarithm of the Ki (pKi) at Trypanothione reductase [1] was < 4.00. As to `CCCNCCCCCCCCCNC(=O)[C@H](O)[C@H](O)[C@H](O)CO`, the negative-log IC50 (pIC50) with Leishmania chagasi is 5.60. On to `OCCn1c(CNCCCNc2nc3ccccc3[nH]2)cc2c(Cl)cc(Cl)cc21`, for which the pIC50 is > 7.60 in test [2] and 9.00 in the test on Trypanosoma brucei [3]. On to `O=C(Cc1ccccc1)NCCCNCCCCNCCCNC(=O)Cc1ccccc1`, for which the pKi at Trypanothione reductase [4] was < 4.00. `CC(=O)NCCCCNCCCNC(C)=O`: the pKi on Trypanothione reductase [5] was < 2.70. As to `CN1CCN(CCCNC(=O)/C=C/c2ccc3occ(/C=C/C(=O)NCCCN4CCN(C)CC4)c3c2)CC1`, the pKi in test [6] was 5.46. For the compound `CC(=O)c1ccc(Sc2ccccc2NCCCN(CCCN)CCCCN(CCCN)CCCNc2cc(Cl)ccc2Sc2ccc(C(C)=O)cc2)cc1`, the negative logarithm of the Ki (pKi) in [6] is 6.40. As to `c1ccc(CNCCCNCCCCNCCCNCc2ccccc2)cc1`, the pKi on Trypanothione reductase [4] was 4.72. In the test with Leishmania braziliensis [7], `CN1CCN(CCC(=O)Nc2cc(Br)ccc2Sc2cccc(NC(=O)CCCC(=O)Nc3cccc(Sc4ccc(Br)cc4NC(=O)CCN4CCN(C)CC4)c3)c2)CC1` had a negative-log IC50 (pIC50) of 6.26. With `CC(C)=CCC/C(C)=C/CC/C(C)=C/CNCCN`, in the test on Leishmania amazonensis [8], the pIC50 is 4.77. On the same count and under the same terms, as for `CC(C)=CCC/C(C)=C/CC/C(C)=C/CNCCCN`, the figure is 5.31. With `NCCNC(=O)CN1C(=O)Cc2c([nH]c3ccc(Br)cc23)-c2ccccc21`, the inhibition in the test on Trypanosoma is 80%. For `N=C(NCCCNCCCCCCCNCCCNC(=N)NC1CCCCCC1)NC1CCCCCC1`, in test [9], the negative logarithm of the IC50 (pIC50) is < 4.82.

With `CC(=O)N(CCCN)CCCCN`, the pKi at Trypanothione reductase [5] was < 2.70. As for `O=C(Cc1c[nH]c2cc(Br)ccc12)NCCCNCCCCNCCCNC(=O)Cc1c[nH]c2cc(Br)ccc12`, the pKi in [6] was 7.12 and 7.10. For the same compound, the inhibition in the test on Bacteria is 98%. Take `CNCCNC(=O)CN1C(=O)Cc2c([nH]c3ccc(Br)cc23)-c2ccccc21`: the inhibition with Trypanosoma was 90%. On to `Clc1cc(Cl)cc(CNCCCNc2nc3ncccc3[nH]2)c1`, for which the pIC50 in test [2] is 9.00; in the test on Trypanosoma brucei [3], 8.40.

Consider `CCCNCCCNC(=O)CNC(=O)[C@H](CCCC[C@H](NC(=O)OCC1c2ccccc2-c2ccccc21)C(=O)NCC(=O)NCCCNCCC)NC(=O)OCC1c2ccccc2-c2ccccc21`, for which, on Trypanothione reductase [1], the pKi was 5.70. With `NCCCCN(Cc1ccccc1)Cc1ccc(OCc2ccccc2)cc1`, the negative logarithm of the IC50 (pIC50) with Leishmania donovani [10] is > 6.00. Regarding `COc1ccc2nc3cc(Cl)ccc3c(NCCCCN(CCCNc3c4ccc(Cl)cc4nc4ccc(OC)cc34)C(=O)[C@H](C)N)c2c1`, in the test on Leishmania donovani [11], the inhibition at 10 µM is 90%. Further, the pIC50 with Leishmania donovani [12] is 6.00. With `Fc1ccc2[nH]c(NCCCNCc3cc(Cl)cc(Cl)c3)nc2n1`, the pIC50 in [2] was 9.00; with Trypanosoma brucei [3] it was 8.40. On to `CCCCCCCCCCCCCCC(CN(CC)CC)NC(=O)OC(C)(C)C` (configuration not stated), for which the Activity in the test with Leishmania braziliensis [13], in the test with Leishmania donovani [14] and in the test on Leishmania amazonensis [15] was 80% throughout. In the case of `CCCCCCCCCCCCNCCN`, the results for the pIC50 in the test on Leishmania amazonensis [16] and in the test on Leishmania chagasi were 6.03 and 6.70, respectively. For the compound `CCN(CCCCN1CN(C(CC(C)C)C(=O)O)CSC1=S)CCCN1CN(C(CC(C)C)C(=O)O)CSC1=S` (configuration not stated), the pIC50 with Trypanosoma cruzi [17] was 5.44. In the case of `NCCCN(CCCCN(CCCN)CCCc1ccccc1)CCCc1ccccc1`, the negative logarithm of the IC50 (pIC50) with Trypanosoma brucei [18], in the test with Trypanosoma brucei [19], in the test with Trypanosoma brucei [20] and in the test on Trypanosoma brucei [21] was 6.30 throughout. Also, the pKi on Trypanothione reductase [4] was 5.52.

`NCCCN1CCN(CCCNC2=C(c3c[nH]c4ccccc34)C(=O)N(CCCN3CCN(CCCN)CC3)C2=O)CC1` had a pIC50 on Trypanothione reductase [22] of 5.27.

Turning to `CCCCN(CCCC)CCCNC(=O)CCCC1=C(CCCC(=O)NCCCN(CCCC)CCCC)C(=O)c2c(O)cccc2C1=O`, the pIC50 at Trypanothione reductase [22] was 6.22. In turn, `CN1CCN(CCCNC(=O)CCCCCC2=C(CCCCCC(=O)NCCCN3CCN(C)CC3)C(=O)c3c(N)cccc3C2=O)CC1` showed a negative logarithm of the IC50 (pIC50) at Trypanothione reductase [22] of 6.10. Take `NCCCCNCCCNC(=O)C(=O)c1c[nH]c2cc(Br)ccc12`: the negative logarithm of the IC50 (pIC50) (in the test with Trypanosoma cruzi [17]; with Leishmania donovani [23]; in [24]) was < 4.40 each time. With `CCCCCCCCCCNCCCCCCN`, the pIC50 in the test on Trypanosoma cruzi [25] was 4.84. As to `NCCCCN(CCCN)C(=O)OCc1ccccc1`, on Trypanothione reductase [1], the negative-log Ki (pKi) is < 4.00. Regarding `Clc1cc(Cl)c2c(c1)[C@H](NCCCNc1nc3ncccc3[nH]1)CCN2`, the negative logarithm of the IC50 (pIC50) was 8.70 in test [2] and 9.40 in the test on Trypanosoma brucei [3]. For `c1ccc(CCCNCCCNCCCCNCCCNCCCc2ccccc2)cc1`, the pIC50 with Trypanosoma brucei [18], in the test with Trypanosoma brucei [19], in the test on Trypanosoma brucei [20] and with Trypanosoma brucei [21] was 6.00 each time. In addition, the pKi at Trypanothione reductase [4] was 4.92.

What is called pKi is the negative decadic logarithm of the Ki, by convention in mol/L. By pIC50 is commonly meant the IC50 on a negative log10 scale, so that one unit is a factor of ten. By inhibition is commonly meant the share of the control response that was lost under treatment.
